Experimental data reported in patent US7189856B2 (priority 2001, dated 2007).
Where a name gives a salt, the structure may show the parent alone.

Molecular target: T1, human SSTR2 receptors (Homo sapiens, UniProt P30874)
T1 construct: expressed in transfected cells; host or cells: CHO-K1 cells
Assay: inhibition of [125I] Somatostatin binding to human SSTR2 receptors expressed in CHO-K1 cells
Description: FIG. 1 illustrates the logarithmic concentration-response curves for inhibition of [^125I] […] Test compounds were tested in duplicate at all concentrations. The average percent inhibition of duplicate was used for plotting the displacement curves, fitted by non-linear regression.
FIG. 2 illustrates the logarithmic concentration-response curves for inhibition of [^125I] […] Test compounds were tested in duplicate at all concentrations. The average percent inhibition of duplicate was used for plotting the displacement curves, fitted by non-linear regression.

T1 sequence (P30874 whole entry): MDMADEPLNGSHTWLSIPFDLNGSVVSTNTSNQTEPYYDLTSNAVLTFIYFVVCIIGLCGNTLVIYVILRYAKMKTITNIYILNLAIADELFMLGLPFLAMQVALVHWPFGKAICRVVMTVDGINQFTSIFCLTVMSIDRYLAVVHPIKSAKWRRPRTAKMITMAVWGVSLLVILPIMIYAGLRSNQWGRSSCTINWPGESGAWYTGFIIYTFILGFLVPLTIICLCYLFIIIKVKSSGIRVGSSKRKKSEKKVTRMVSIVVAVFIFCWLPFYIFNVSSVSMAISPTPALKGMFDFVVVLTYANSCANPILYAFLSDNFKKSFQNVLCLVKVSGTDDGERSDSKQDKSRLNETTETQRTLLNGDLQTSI

SMILES | IC50 [nM]
CN(C)C(=O)c1cc(S(=O)(=O)N2C(=O)N(CC3CCC[C@@H](CN)C3)C(=O)[C@@H]2Cc2c[nH]c3ccccc23)ccc1Oc1ccc(O)c(Cl)c1 (single isomer, unassigned) [Example 15a HCl salt] | 0.29 ± 0.0395
CN(C)C(=O)c1cc(S(=O)(=O)N2C(=O)N(C[C@@H]3CCC[C@H](CN)C3)C(=O)[C@@H]2Cc2c[nH]c3ccccc23)ccc1Oc1ccc(O)c(Cl)c1 (single isomer, unassigned) [Example 15b HCl salt] | 1.3 ± 0.183
